The conditions of data set [1]: 2 weeks.
In data set [2] the test system is A/Puerto Rico/8/34.
In data set [3] the test system is Influenza A/Vietnam/1203/2004 (H5N1) virus. Type of data set: in vivo, BALB/c mice. To be noted: 10 mg/kg p.o. twice a day for 10 days; Treatment (+48 h).
For a further data set, the system named is influenza A virus. Kind of data set: Mouse influenza A model: prophylactic dose response and delayed treatment, survival and body weight loss. Particulars: 10 mg/kg BID. Type of data set: in vivo, mice. The text has this:
The prophylactic dose response of Compound (1) was investigated in the mouse influenza A model. […] All of the mice that received vehicle alone succumbed to the infection by study day 9 and had lost, on average, ˜32% of their body weight (BW).
All vehicle controls succumbed to disease by study days 8 or 9.

Data set [4] relates to Influenza A/Victoria/3/75 (H3N2) virus. Type of data set: in vivo, BALB/c mice. Particulars: mouse, in vivo.
Data set [5] relates to Influenza A/California/04/2009 (pndH1N1) virus. Type of data set: in vivo, BALB/c mice. Particulars: mouse, in vivo.
Another data set deals with influenza A. Kind of data set: Mouse model of influenza A: lung viral titers. Type of data set: in vivo, mice. Particulars: Study 1, 10 mg/kg BID from 24 h post infection for 5 days.
In another data set the test system is influenza A/PR/8/34. Nature of the data set: In vivo combination of Compound (1) with zanamivir, influenza A challenge in mice. To be noted: no Compound (1). The text has this:
Efficiency quotient, a composite measure of survival, bodyweight loss and lung function (% survival/(% body weight loss at Day 8)*(Penh at Day 6)) is summarized in Table 19B.

Data set [6] deals with A/Puerto Rico/8/34. Type of data set: cell-based, influenza A virus.
Where [7] appears, read: in Nitromethane, ambient temperature.
[8] abbreviates: treatment start +24 h relative to infection.
Where [9] appears, read: treatment start +48 h relative to infection.
Setting [10] is: treatment start +72 h relative to infection.
Where [11] appears, read: treatment start −2 h relative to infection.
Setting [12] is: Zanamivir 0.3 mg/kg IN x 1, 24 h prior to infection.
The mark [13] stands for this setting: Zanamivir 1 mg/kg IN x 1, 24 h prior to infection.
[14] abbreviates: Zanamivir 3 mg/kg IN x 1, 24 h prior to infection.

Each structure is given as a SMILES string. Like-named read-outs stand apart in the source and are kept apart here. Marks after values point to notes of the source that are not given here. A value given as a limit tells only on which side of the number the result lay.

Take `Cl.Cl.O.O=C(O)[C@H]1C2CCC(CC2)[C@@H]1Nc1nc(-c2c[nH]c3ncc(F)cc23)ncc1F.O=C(O)[C@H]1C2CCC(CC2)[C@@H]1Nc1nc(-c2c[nH]c3ncc(F)cc23)ncc1F` [Form A HCl salt of Compound (1)]: the Sol. in data set [1] is 0.6 mg/mL; in [1] (setting [7]), below 0.1 mg/mL.

For the compound `O=C(O)[C@H]1C2CCC(CC2)[C@@H]1Nc1nc(-c2c[nH]c3ncc(F)cc23)ncc1F` [Form A free base Compound (1)], the Sol. was below 0.1 mg/mL in data set [1] and 0.3 mg/mL in data set [1] (setting [7]).

For the compound `CCOC(=O)C1=C[C@@H](OC(CC)CC)[C@H](NC(C)=O)[C@@H](N)C1` [Oseltamivir, reference compound], the “C.I. (combination index) values at the 50% effect level” value in the data set with A/Puerto Rico/8/34 [2] is reported as 0.58. The “MDD ± SD (mean day of death of mice that died on or before day 21)” value in data set [3] is 9.5 ± 1.2; in data set [4], 7.0. Also, the “Mean Lung Parameters (Day 6): Virus Titer” value in [3] was found to be 5.22 ± 0.38 Log10 CCID50/g; in [4] it was 7.0 Log10 CCID50/g; in [5], 7.9 Log10 CCID50/g. The results for the Survivors/Total in data set [3], in data set [4] and in [5] were 0/10, 9/10*** and 10/10***, respectively. In addition, the survival result with influenza A virus (same experiment (prophylactic)) is “All of the oseltamivir-administered mice survived”. The protection from death result in the data set on influenza A virus (only when dosing was initiated 24 h or less post infection) is reported as “complete protection”. Besides, the “Percent Body Weight Loss on Study Day 8” value in the data set on influenza A virus (setting [8]) was −28.9%; in the data set with influenza A virus (setting [9]), −31.1%; in the data set with influenza A virus (setting [10]), −31.3%; in the data set with influenza A virus (setting [11]), −19.1%. Moreover, the “Percent Survival” value with influenza A virus (setting [8]) is 100%; in the data set on influenza A virus (setting [9]), 80%; in the data set with influenza A virus (setting [10]) it was 0%; with influenza A virus (setting [11]) it was 100%. The “Mean Lung Parameters (Day 6): Score (hemorrhage score 0-4)” value in data set [4] worked out at 1.7; in data set [5] it was 1.0. Besides, the “Mean Lung Parameters (Day 6): Weight” value was found to be 218 mg in data set [4] and 178 mg in data set [5]. The “Log10 Reduction vs. Vehicle” value in the data set with influenza A (study day 6) is recorded as −0.15. The “Lung Viral Titer” value in the data set on influenza A (titers on study day 6) is reported as 6.05 Log10 TCID50.

For `CC(=O)N[C@H]1[C@H]([C@H](O)[C@H](O)CO)OC(C(=O)O)=C[C@@H]1N=C(N)N` [Zanamivir, reference compound], the “Efficiency Quotient (% survival/(% body weight loss at Day 8)*(Penh at Day 6))” value in the data set with influenza A/PR/8/34 (setting [12]) stood at 0.44; with influenza A/PR/8/34 (setting [13]), 0.73; in the data set on influenza A/PR/8/34 (setting [14]), 0.73. Besides, the “Survival Rate” value in the data set on influenza A/PR/8/34 (setting [12]) is 37.5; with influenza A/PR/8/34 (setting [13]), 50; in the data set on influenza A/PR/8/34 (setting [14]) it was 62.5. Besides, in the data set on A/Puerto Rico/8/34 [2], the “C.I. (combination index) values at the 50% effect level” value was 0.64. Also, the “Synergy Volume, 95% Confidence” value with A/Puerto Rico/8/34 [6] is 268.

With `NC(=O)c1nc(F)c[nH]c1=O` [favipiravir], in the data set on A/Puerto Rico/8/34 [2], the “C.I. (combination index) values at the 50% effect level” value turned out to be 0.89. Besides, the “Synergy Volume, 95% Confidence” value in the data set on A/Puerto Rico/8/34 [6] was 317.

Consider `CCC(CC)O[C@@H]1C=C(C(=O)O)C[C@H](N)[C@H]1NC(C)=O` [oseltamivir carboxylate], for which the “Synergy Volume, 95% Confidence” value with A/Puerto Rico/8/34 [6] was determined as 312.

The values above are taken from patent US11345700B2, “Methods of preparing inhibitors of influenza viruses replication” (priority 2013, dated 2022).
